In patent US10588896B2, “Agents for the treatment of retroviral infectious diseases” (IMMUNOLOGIK GMBH, priority 2014, dated 2020):
Entries after “also recorded” stand apart in the source; their conditions may differ. Where two headings read alike, the source gives them in different places.

Tests used:
[1] = test system: PBMC cultures
Experimental: Toxicity was assessed with a WST assay. Herein viable cells with an intact mitochondrial succinate-tetrazolium dehydrogenase system effect an enzymatic conversion of the feebly red tetrazolium salt WST-1 (4-[3-(4-iodophenyl)-2-(4-nitrophenyl)-2H-5tetrazolio]-1,3 benzene disulfonate) into the dark red formazan. This color change can be measured photometrically in a spectrophotometer. Thus, the WST assay is a very sensitive method for measuring the toxicity of substances on the cell metabolism.
The respective percentage of dead cells was depicted in comparison to untreated control (100%).

[2] = test system: HIV-1NL4-3 (R5 tropic); test: HIV-1 replication in infected PBMC cultures (macrophages), reverse transcriptase activity in supernatant; format: cell-based; details: for reduction of the HIV-1 replication capacity: 5 donors
Text: As could be shown in the preceding example that PR-619 inhibits the late processes in Gag processing this effect on the spread of infection was investigated. According to the invention, isolated primary human peripheral blood mononuclear cell (PBMC) cultures were infected to this aim with the virus strain HIV-1NL4-3(X4 tropic) or HIV-1 NLNL4-3(R5 tropic). One day after infection cells were washed with PBS (phosphate buffer saline), provided with fresh medium containing the DUB inhibitor PR-619 in several non-cytotoxic concentrations (3.5 μM, 7 μM, 14 μM, 28 μM). The treatment with DUB inhibitors was carried out over the entire experimental period (“permanent treatment”) or only on Day 1 and Day 3 after infection (“structured treatment”). In the infection with HIV-1NL4-3 (R5 tropic), only a permanent treatment was performed. Each 2-3 days samples from the cell culture supernatants were taken, frozen and later on used for determining reverse transcriptase activity. Concomitantly, 80% of the cell culture medium was replaced and fresh PR-619 was added. Reverse transcriptase activity (ccpm) was determined in the cell-free cell culture supernatants and plotted against time (FIGS. 4A and 4B; the black arrows indicate the treatment with PR-619).
In permanent treatment 3.5 μM yielded a reduction by 35%(±8%), 7 μM a reduction by 60%(±9%) and 14 μM by 100%.
For comparative purposes, the anti-retroviral effect found for PR-619 was compared with three other DUB inhibitors P005091, WP1130 and P22077. Experiments were carried out as described in Example 2.
In order to clarify the question whether a combined permanent treatment with PR-619 and the proteasome inhibitor bortezomib (Velcade®) causes a synergistic effect on the replication capacity of HIV-1, a cross titration was carried out with both substances (analogous to Example 2 and 3). Herein, PBMC cultures were treated permanently after infection with the virus strain HIV-1NL4-3, first only with the DUB inhibitor PR-619 or with the proteasome inhibitor bortezomib in non-toxic increasing concentrations (PR-619: 0.3 μM, 0.9 μM, 2.75 μM and 8 μM; bortezomib: 0.6 nM, 1.5 nM, 5.3 nM and 16 nM).
Herein, the cells were treated permanently with constantly 0.6 nM bortezomib and increasing concentrations of PR-619 (0.3 μM, 0.9 μM, 2.7 μM and 8 μM). Experiments were carried out as described in Example 2. […] The DUB inhibitor PR-619 is able to inhibit the HIV-1 replication beginning with a concentration of 2.7 μM (FIG. 12B).

[3] = test system: HIV-1NL4-3 (X4 tropic); test: HIV-1 replication in infected PBMC cultures (T cells), reverse transcriptase activity in supernatant; format: cell-based; details: for HIV-1 replication / inhibition of the HIV-1 replication / reduction of the HIV-1 replication capacity (AUC) / concentration beginning with which HIV-1 replication is inhibited: T cells; for HIV-1 replication: structured and permanent treatment; for reduction of the HIV-1 replication capacity (AUC): 6 donors; for concentration beginning with which HIV-1 replication is inhibited: substance alone
Experimental: According to the invention, isolated primary human peripheral blood mononuclear cell (PBMC) cultures were infected to this aim with the virus strain HIV-1NL4-3(X4 tropic) or HIV-1 NLNL4-3(R5 tropic). […] The treatment with DUB inhibitors was carried out over the entire experimental period (“permanent treatment”) or only on Day 1 and Day 3 after infection (“structured treatment”). In the infection with HIV-1NL4-3 (R5 tropic), only a permanent treatment was performed. Each 2-3 days samples from the cell culture supernatants were taken, frozen and later on used for determining reverse transcriptase activity. Concomitantly, 80% of the cell culture medium was replaced and fresh PR-619 was added. Reverse transcriptase activity (ccpm) was determined in the cell-free cell culture supernatants and plotted against time (FIGS. 4A and 4B; the black arrows indicate the treatment with PR-619).
For six different donors the area under the curve (AUC) in the HIV-1 replication profiles after infection of PBMCs with T-cell tropic virus was determined, representing the HIV-1 replication capacity.
Experiments were carried out as described in Example 2. […]

[4] = test system: HIV-1 Gag structure proteins; test: Western Blot analysis of HIV-1 Gag processing in HeLa cells transfected with pNLΔenv (cell and VLP fraction); format: cell-based
Experimental: In order to investigate whether PR-619 and its derivatives inhibit the processing of HIV-1 Gag structure proteins, Western Blot (WB) analyses were carried out. Therefore, HeLa cell cultures were transfected with the pNLΔenv plasmid which encodes for HIV-1 proteins excluding the env envelope proteins. This enables the production of virus-like particles (VLPs), an established in vitro model in HIV-1 research. 24 h after transfection the cells were transferred to reaction vessels, and a pre-incubation with PR-619 for 1 h was performed. Thereupon, the cells were washed three times with PBS and incubated for 4 h in fresh RPMI medium either with 20 μM PR-619 (Merck-Millipore) or with the corresponding amount of DMSO as solvent control at 37° C.
Then a separation into a cell and a VLP fraction was effected by means of centrifugation. VLPs were purified from the cell culture supernatants via a 20% sucrose cushion. Cells were then washed with PBS and lysed with RIPA buffer. Protein concentrations were determined by means of Bradford protein assays and assimilated for the respective lysates. […]
A densitometric evaluation of Gag processing in the VLP fraction was carried out with the analysis program AIDA®. The densitometric evaluation allows for the quantification of signal intensities in Western Blot and thus conclusions on the quantity of a certain protein in the sample. […]

[5] = test system: HLAC cultures; test: WST assay cytotoxicity in HLAC cultures from ex vivo tonsillar tissue; format: cell-based, human
[6] = test system: HIV-1NL4-3 (X4-tropic) or HIV-1NL4-3 (R5-tropic); test: HIV-1 replication in human lymphoid aggregate culture (HLAC) ex vivo tonsillar tissue; format: cell-based; details: for reduction of the HIV-1 replication capacity: T cells and macrophages, permanent treatment, 3 replication profiles
Experimental: In order to substantiate the inhibition of the HIV replication under treatment with PR-619, as observed in Example 2, according to the invention human ex vivo cultivated tonsillar tissue was infected with the virus strain HIV-1NL4-3 (X4-tropic) or HIV-1NL4-3 (R5-tropic). The experiments were carried out as described in Example 2.

[7] = test system: MHC-I antigen presentation of Gag-derived epitopes; test: MHC-I antigen presentation of Gag-derived SL epitope in HeLa-Kb cells, FACS with mAB 25D1.16; format: cell-based, human; details: HeLa-Kb cells transfected with Gag-SL, 7 and 14 μM, dose-dependent
Text: Since there is no conformation-dependent MHC-I specific antibody that could detect Gag epitopes bound to human MHC-I molecules the ovalbumin-derived sequence […] (SL) was introduced as a model epitope into the non-structured SP1 spacer region of Gag. For measuring the MHC-I antigen presentation, HeLa cells constitutively expressing the murine SL-binding MHC-I allotype H2-Kb (HeLa-Kb) (Porgador et al., 1997, Immunity 6(6), 715-726) were transfected with expression plasmids coding for Gag-SL proteins. Performing flow cytometric analyses the monoclonal antibody (mAB) 25D1.16 was used which recognizes specifically SL in the complex with H2-Kb.
24 h after transfection the cells were incubated overnight with different concentrations of the DUB inhibitor PR-619 (7 and 14 μM).
Then, an acid wash (acid washing buffer pH 3) was carried out for removing the H2-Kb-SL complexes from the cell surface. Thereafter, the cells were incubated with and without PR-619 for 4 h at 37° C. and then the newly loaded H2-Kb-SL complexes at the cell surface under inhibition with PR-619 were determined by FACS analysis with the monoclonal AB 25D1.16. For compensating possible differences in the expression level of Gag-SL, the mean fluorescence intensity (MFI) of the 25D1.16 staining was normalized to the MFI of the intracellular Gag signal.

Compound: CC(=O)c1cc([N+](=O)[O-])c(Sc2cccc(Cl)c2Cl)s1 [P005091, 1-[5-[(2,3-dichlorophenyl)thio]-4-nitro-2-thienyl]-ethanone, reference compound]
- toxicity (WST assay) ([1]; 0.75-3 μM, day 13): shows no toxicity
- HIV-1 replication ([2]; 0.75 μM, 1.5 μM and 3 μM): does not inhibit HIV-1 replication
- HIV-1 replication ([3]; 0.75 μM, 1.5 μM and 3 μM): does not inhibit HIV-1 replication

Compound: CC(=O)c1cc([N+](=O)[O-])c(Sc2ccc(F)cc2F)s1 [P22077, reference compound]
- general cytotoxic damage of the host cell ([1]; 7.5 μM, 15 μM, 30 μM and 60 μM): does not exist
- HIV replication ([3]; 7.5 μM, 15 μM, 30 μM and 60 μM): nearly complete inhibition of HIV replication

Compound: N#CSc1cc(SC#N)c(N)nc1N [PR-619, 2,6-diaminopyridine-3,5-bis(thiocyanate)]
- Gag processing (Western Blot) ([4]; 20 μM PR-619, 4 h, HeLa cells transfected with pNLΔenv): significantly inhibits Gag processing
- generation of the main Gag processing product CA (densitometric evaluation, VLP fraction) ([4]; 20 μM PR-619, VLP fraction): clearly inhibited
- concentration at which a clear toxic effect starts ([1]; PBMC, 15 days): 28 µM
- toxic effect (WST assay) ([1]; antivirally effective concentrations, observation period of 15 days): did not display any significant toxic effect; also recorded: does not display a significant toxic effect
- toxic effect (WST assay) ([1]; highest used concentration of 8 μM, permanent treatment): did not show either a clear toxic effect
- toxic effect (WST assay) ([5]; all applied antiretrovirally effective concentrations, 15 days): did not display any significant toxic effect
- toxic effects (WST assay) ([5]; highest concentration of 10 μM): no toxic effects were observed
- inhibitory effect on the HIV-1 replication ([6]; 1.25 μM): did not exert an inhibitory effect
- inhibition of the replication ([6]; 2.5 μM, 5 μM and 10 μM): clear, respectively complete inhibition of the replication
- reduction of the HIV-1 replication capacity ([6]; 2.5 μM): 40%(±9%)
- reduction of the HIV-1 replication capacity ([6]; 5 μM): 86%(±2%)
- reduction of the HIV-1 replication capacity ([6]; 10 μM): completely
- reduction of the HIV-1 replication capacity ([2]; permanent treatment, 3.5 μM): 35%(±8%)
- reduction of the HIV-1 replication capacity ([2]; permanent treatment, 7 μM): 60%(±9%)
- reduction of the HIV-1 replication capacity ([2]; permanent treatment, 14 μM): 100%
- antiviral efficacy (concentration) ([3]; PBMC): about 3.5 μM
- inhibition of the HIV-1 replication ([3]; 3.5 μM, permanent treatment): complete
- inhibition of the HIV-1 replication ([3]; 3.5 μM, structured treatment): clear
- reduction of the HIV-1 replication capacity (AUC) ([3]; permanent treatment, 3.5 μM): 50%(±16%)
- reduction of the HIV-1 replication capacity (AUC) ([3]; permanent treatment, 7 μM): 97%(±15%)
- reduction of the HIV-1 replication capacity (AUC) ([3]; permanent treatment, 14 μM): 100%
- concentration beginning with which HIV-1 replication is inhibited ([3]; permanent treatment): 2700 nM
- reduction of the HIV-1 replication capacity (AUC) ([3]; structured treatment, 3.5 μM): 23%(±14%)
- reduction of the HIV-1 replication capacity (AUC) ([3]; structured treatment, 7 μM): 94%(±14%)
- reduction of the HIV-1 replication capacity (AUC) ([3]; structured treatment, 14 μM): 100%
- increase of MHC-I antigen presentation of Gag-derived epitopes [7]: 6 fold

Compound: COc1ccc(C[C@H](NC(=O)[C@H](C)NC(=O)CN2CCOCC2)C(=O)N[C@@H](Cc2ccccc2)C(=O)[C@@]2(C)CO2)cc1 [PR-957, reference compound]
- toxicity (WST assay) ([1]; 20-160 nM, permanent treatment): did not display any toxicity
- concentration beginning with which HIV-1 replication is inhibited ([3]; permanent treatment): 80 nM

Compound: CCC[C@H](NC(=O)/C(C#N)=C/c1cccc(Br)n1)c1ccccc1 [WP1130, (2E)-3-(6-bromo-2-pyridinyl)-2-cyano-N-[(1S)-1-phenylbutyl]-2-propenamide, reference compound]
- toxicity (WST assay) ([1]; concentration >3 μM, day 13): complete death of the cells
- reduction in living cells ([1]; permanent treatment, 3 μM, day 13): 40%
- HIV-1 replication ([2]; 3 μM and 6 μM): no significant reduction of the HIV-1 replication
- HIV-1 replication ([3]; 3 μM and 6 μM): no significant reduction of the HIV-1 replication

Compound: CC(C)C[C@H](NC(=O)[C@H](Cc1ccccc1)NC(=O)c1cnccn1)B(O)O [bortezomib, reference compound]
- reduction in living cells ([1]; 16 nM, permanent treatment): 60%
- toxicity (WST assay) ([1]; 0.6-5.3 nM, permanent treatment): did not display any toxicity
- concentration beginning with which HIV-1 replication is inhibited ([2]; permanent treatment, substance alone): 5.3 nM
- concentration beginning with which HIV-1 replication is inhibited ([3]; permanent treatment): 5.3 nM
